pIC50: −log10 of the molar value.
Each compound was assayed against T1, human recombinant renin (Homo sapiens, UniProt P00797) (assay: Inhibition of human recombinant renin, enzymatic in vitro assay with Ang I detection by EIA). Conditions: human recombinant renin 0.16 ng/mL, synthetic human angiotensin (1-14) 0.5 μM, 37° C. for 3 h; read-out: IC50 (concentration of renin inhibition that inhibited the enzyme activity by 50%).
T1 sequence (P00797 67-406): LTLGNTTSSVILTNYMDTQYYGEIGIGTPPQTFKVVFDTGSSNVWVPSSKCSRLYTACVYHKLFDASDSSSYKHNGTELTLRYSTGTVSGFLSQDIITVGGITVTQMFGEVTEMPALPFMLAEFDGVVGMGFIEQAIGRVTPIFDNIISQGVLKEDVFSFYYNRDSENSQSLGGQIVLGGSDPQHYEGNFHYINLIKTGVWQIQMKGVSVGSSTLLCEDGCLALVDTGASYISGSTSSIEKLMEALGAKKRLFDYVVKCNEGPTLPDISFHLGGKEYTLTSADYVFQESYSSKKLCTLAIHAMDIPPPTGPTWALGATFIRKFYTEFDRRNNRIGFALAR
Assay type: biochemical
Experimental: Inhibition of Human Recombinant Renin by the Compounds of the Invention The enzymatic in vitro assay was performed in 384-well polypropylene plates (Nunc). The assay buffer consisted of 10 mM PBS (Gibco BRL) including 1 mM EDTA and 0.1% BSA. The incubates were composed of 50 μL per well of an enzyme mix and 2.5 µL of renin inhibitors in DMSO. The enzyme mix was premixed at 4° C. and consists of the following components: • human recombinant renin (0.16 ng/mL)●synthetic human angiotensin (1-14) (0.5 μM) • hydroxyquinoline sulfate (1 mM) The mixtures were then incubated at 37° C. for 3 h. To determine the enzymatic activity and its inhibition, the accumulated Ang I was detected by an enzyme immunoassay (EIA) in 384-well plates (Nunc). 5 μL of the incubates or standards were transferred to immuno plates which were previously coated with a covalent complex of Ang I and bovine serum albumin (Ang I—BSA). 75 μL of Ang I-antibodies in essaybuffer above including 0.01% Tween 20 were added and a primary incubation made at 4° C. overnight. The plates were washed 3 times with PBS including 0.01% Tween 20, and then incubated for 2 h at rt with an antirabbit-peroxidase coupled antibody (WA 934, Amersham).

In order of falling pIC50:
1. Cc1cc(Cl)c(OCCOc2ccc(C3=C(C(=O)N(Cc4ccnc(OCCCO)c4C)C4CC4)C4CCC(C3)N4)cc2)c(Cl)c1 (racemic) [Example 2, (rac.)-(1R*, 5S*)-3-{4-[2-(2,6Dichloro-4-methylphenoxy)ethoxy]phenyl}-8-azabicyclo[3.2.1]oct-2-ene-2-carboxylic acid cyclopropyl-[2-3-hydroxy-propoxy)-3-methylpyridin4-ylmethyl]amide]  9.74
2. Cc1c(CN(C(=O)C2=C(c3ccc(CCCOc4c(F)ccc(F)c4Cl)cc3)C[C@@H]3CC[C@H]2N3)C2CC2)ccnc1OCCCO (racemic) [Example 1, (rac.)-(1R*, 5S*)-3-{4-[3-(2-Chloro-3,6-difluorophenoxy)propyl]phenyl}-8-azabicyclo[3.2.1]oct-2-ene-2-carboxylic acid cyclopropyl-[2-(3-hydroxy-propoxy)-3-methylpyridin-4-ylmethyl]amide]  9.60
3. Cc1c(CN(C(=O)C2=C(c3ccc(CCCOc4c(F)ccc(F)c4Cl)cc3)CC3COCC2N3)C2CC2)ccnc1OCCCO (racemic) [Example 4, (rac.)-(1R*, 5S*)-7-(4-13-(2-Chloro-3,6-difluorophenoxy)propyl]phenyl}-3-oxa-9-azabicyclo[3.3.1]non-6-ene-6-carboxylic acid cyclopropyl-[2-(3-hydroxypropoxy)-3-methylpyridin-4-ylmethyl]amide]  9.26
4. Cc1c(CN(C(=O)C2=C(c3ccc(CCCOc4c(F)ccc(F)c4Cl)cc3)C[C@@H]3CC[C@H]2N3)C2CC2)ccnc1OCCC(N)=O (racemic) [Example 7, (rac.)-(1R*, 5S*)-3-{4-[3-(2-Chloro-3,6-difluorophenoxy)propyl]phenyl}-8-azabicyclo[3.2.1]oct-2-ene-2-carboxylic acid [2-(2-carbamoylethoxy)-3-methylpyridin-4-ylmethyl]cyclopropylamide]  8.52
5. Cc1c(CN(C(=O)C2=C(c3ccc(CCCOc4c(F)ccc(F)c4Cl)cc3)C[C@@H]3CC[C@H]2N3)C2CC2)ccnc1OCCC(=O)O (racemic) [Example 5, (rac.)-(1R*, 5S*)-3-(4-{[(3-{4-[3-(2-Chloro-3,6-difluorophenoxy)propyl]-phenyl}-8azabicyclo[3.2.1]oct-2-ene-2-carbonyl)cyclopropylamino]methyl}-3-methyl-pyridin-2-yloxy)propionic acid]  8.52
6. Cc1c(CN(C(=O)C2=C(c3ccc(CCCOc4c(F)ccc(F)c4Cl)cc3)CC3CS(=O)(=O)CC2N3)C2CC2)ccnc1OCCCO (racemic) [Example 3, (rac.)-(1R*, 5S*)-7-14-[3-(2-Chloro-3,6-difluorophenoxy)propyl]phenyl}-3,3-dioxo-3λ^6-thia-9-azabicyclo[3.3.1]non-6-ene-6-carboxylic acid cyclopropyl-[2-(3-hydroxypropoxy)-3-methylpyridin-4-ylmethyl]amide]  8.26
7. COC(=O)CCOc1nccc(CN(C(=O)C2=C(c3ccc(CCCOc4c(F)ccc(F)c4Cl)cc3)CC3CCC2N3)C2CC2)c1C (racemic) [Example 6, (rac.)-(1R *, 5S*)-3-(4-{[(3-({4-[3-(2-Chloro-3,6-difluorophenoxy)propyl]-phenyl}-8-azabicyclo[3.2.1]oct-2-ene-2-carbonyl)cyclopropylamino]methyl}-3-methylpyridin-2-yloxy)propionic acid methyl ester]  8.17

From patent US20070135405A1, “Novel diazabicyclononene and tetrahydropyridine derivatives with a new polar side-chain” (priority 2003, published 2007)
